In US20140094465A1, “Compounds as S-Nitrosoglutathione Reductase Inhibitors” (N30 PHARMACEUTICALS, INC., priority 2011, published 2014):
Like-named read-outs stand apart in the source and are kept apart here.

Experiments:
[1] = target: T1, S-nitrosoglutathione reductase (GSNOR) (Homo sapiens, UniProt P11766); assay: GSNOR assay (inhibition of GSNOR activity, NADH absorbance at 340 nm); assay type: biochemical
T1 construct: made in house; host or cells: E. coli
In short: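 Recombinant GSNOR purified from E. coli, tag removed. Final conditions: 100 mM NaPO4 pH 7.4, 0.240 mM GSNO, 0.300 mM NADH, 0.5 μg/mL enzyme, 1% DMSO; NADH loss followed as 340 nm absorbance change over 3 min at 25 °C. Compounds 100–0.003 μM, triplicate; IC50 by curve analysis.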

[2] = tested on: dextran sodium sulfate (DSS)-induced IBD; assay: Acute prophylactic model of DSS-induced IBD; assay type: in vivo, mouse
Description: Acute and chronic models of dextran sodium sulfate (DSS)-induced IBD in mice were used to explore efficacy of GSNORi against this disease. Acute and chronic DSS-induced IBD are widely used and well characterized models that induce pathological changes in the colon similar to those observed in the human disease. In these models and in human disease, epithelial cells within the crypts of the colon are disrupted, leading to dysfunction of the epithelial barrier and the ensuing tissue inflammation, edema, and ulceration. GSNORi therapy may benefit IBD by restoring s-nitrosoglutathione (GSNO) levels, and thus prevent or reverse the epithelial barrier dysfunction. Experimental IBD was induced by administration of DSS in the drinking water of male C57Bl/6 mice (N=8 to 10 mice per group) for 6 consecutive days. GSNORi was dosed orally at doses of 0.1 to 10 mg/kg/day for 10 days starting two days prior to and continuing two days post DSS exposure. […] Levels of circulating cytokines involved in inflammatory pathways were also assessed. The effect of GSNORi was compared to vehicle treated controls. […] Naïve mice (N=5) were also assessed as a normal tissue control.

[3] = tested on: cigarette smoke-induced COPD; assay: Acute (4 day) cigarette smoke exposure COPD model; assay type: in vivo, mouse; conditions: acute 4 day smoke model
Description: The efficacy of GSNOR inhibitors was assessed in a mouse model of chronic obstructive pulmonary disease (COPD) induced by short duration (4 days or 11 days) of exposure to cigarette smoke. Infiltration of inflammatory cells into the bronchoalveolar lavage fluid (BALF) and BALF levels of chemokines involved in inflammation and tissue turnover/repair were measured to assess the influences of GSNOR inhibitors on some of the early events associated with the initiation and progression of COPD.
Efficacy of GSNOR inhibitors against COPD was explored using acute (4 day) and subchronic (11 day) models of cigarette smoke-induced COPD in mice. […] In animal models, changes in lung pathology are only evident after extended (several months) duration of exposure to cigarette smoke, thus making chronic models prohibitive as effective screening tools. More recently, models exploring inflammatory responses after short duration (2 weeks or less) of smoke exposure in mice have been utilized as tools for screening efficacy and mechanisms of action of novel therapeutics against COPD. The key roles of inflammation in the initiation and progression of COPD, make these short duration models relevant for initial tests of efficacy of novel therapeutics.
Female C57Bl/6 mice (N=8 per group) were exposed to cigarette smoke using a whole body exposure chamber. Mice were exposed daily for 4 consecutive days to 4 cycles of smoke from 6 sequential cigarettes (Kentucky 3R4F without filter) with a 30 minute smoke free interval between cycles. GSNOR inhibitors were administered daily via oral dosing at 10 mg/kg/day for 7 days starting 2 days prior to smoke exposure and continuing 1 day post-exposure. The effects of GSNOR inhibitors were assessed by quantitating the numbers of total cells, leukocytes, and leukocytes differentials in the BALF via light microscopy and the levels of BALF chemokines via ELISA at approximately 24 h after the last smoke exposure. The effect of GSNOR inhibitors were compared to vehicle treated controls. The PDE4 inhibitor, roflumilast, was used as the positive control for the study. A group of naïve mice (N=8) was exposed to air and used as a negative control for the study.

GSNOR and NAD+ = target: T2, GSNOR and NAD+ (Homo sapiens, UniProt P11766); assay: X-ray crystallography of inhibitor bound to GSNOR and NAD+, distance measurement; conditions: crystal structure bound to GSNOR and NAD+; O atom of hydroxyl to C atom of carbonyl
T2 construct: made in house; host or cells: E. coli
Description: Single crystal x-ray diffraction is a method useful to understanding the 3-dimensional structure of the binding pocket. The solved crystal structures offer significant information about the GSNOR binding pocket and the interactions of the inhibitors within the binding site. The crystal structure of the ternary complex of GSNOR, NAD+, and Compound IV-10 (Table 4, Example 1) (4-(7-hydroxy-4-oxo-2-(trifluoromethyl)-4H-chromen-3-yl)benzoic acid) was solved. The enzyme-ligand complex crystallized as a homodimer with Compound IV-10 binding to each GSNOR monomer. The key pharmacophores identified from the ternary complex of GSNOR inhibitor with GSNOR and NAD+ are the hydroxyl group on the bicyclic ring of Compound IV-10, which hydrogen bonds to histidine 66, cysteine 44, cysteine 173 and threonine 46. This hydroxyl group is also part of the Zn complex to histidine 66, cysteine 44, and cysteine 173 and threonine 46. The carboxylic acid of Compound IV-10 hydrogen bonds to the glutamine 111 and forms a salt bridge with lysine 283. […]
Once the crystal structures were solved, a distance measurement was made. […] For the second crystal structure with Compound V-1 bound to GSNOR and NAD+, the distance between the hydroxyl group and the carboxylic acid found to be 12.34 Å (measured in the same manner as described above). […]

[4] = Mouse pharmacokinetic (PK) study; assay type: in vivo; conditions: male, BALB/c, plasma, po, 10 mg/kg, male BALB/c mice, 2 mg/kg IV, 10 mg/kg PO, read-out: oral bioavailability (% F)
Description: The mouse was used to determine the pharmacokinetics of compounds of the invention. This species is widely used to assess the bioavailability of compounds by administering both oral (PO) and intravenous (IV) test articles. Efficacy of the compounds of the invention was compared by assessing plasma exposure in male BALB/c mice either via IV or PO administration at the times of peak activity.
Compounds of the invention were reconstituted in a phosphate buffered saline (PBS)/10% Solutol (HS 15) clear solution resulting in a concentration of 0.2 mg/mL and administered to mice (2 mg/kg) as a single IV dose. Animals were dosed via the lateral tail vein. Blood samples were collected at designated time points (0.083, 0.25, 0.5, 1, 2, 4, 8, 16, 24 hours) by cardiac puncture under isoflurane anesthesia (up to 1 mL blood per animal). The blood was collected into tubes containing Li-Heparin. The blood samples were kept on ice until centrifugation within approximately 30 minutes of collection. The plasma was transferred into labeled polypropylene tubes and frozen at −70° C. until analyzed by LC/MS/MS.
The compounds of the invention were reconstituted in 40% Propylene Glycol/40% Propylene Carbonate/20% of a 5% Sucrose clear solution resulting in a concentration of 2 mg/mL and administered to mice (10 mg/kg) as a single oral dose via gavage. Blood samples were collected at 0.25, 0.5, 1, 2, 4, 8, 12, 16, 20 and 24 hours post dose by cardiac puncture under isoflurane anesthesia. The blood was collected in tubes containing Li-Heparin. The blood samples were kept on ice until centrifugation within approximately 30 minutes of collection. The plasma was transferred into labeled polypropylene tubes and frozen at −70° C. until analyzed by LC/MS/MS.
Plasma samples at each timepoint were analyzed using a LC-MS/MS with a lower limit of quantification (LLOQ) of 1 ng/mL. Plasma was analyzed to determine the amount of the compound of the invention in each sample and regression curves generated for each compounds of the invention in the relevant matrixes.
WinNonlin analysis was used for calculating PK parameters for both the IV and PO administrations:
PK parameters for IV portion—AUClast; AUCINF; T1/2; Cl; Vss; Cmax; MRT
PK parameters for PO portion—AUClast; AUCINF; T1/2; Cmax; Cl, MRT.
In addition to the above PK parameters, bioavailability (% F) was calculated.

[5] = GSNOR inhibitor activity, Tables 1-6, read-out: IC50 range

T1 sequence (P11766 whole entry): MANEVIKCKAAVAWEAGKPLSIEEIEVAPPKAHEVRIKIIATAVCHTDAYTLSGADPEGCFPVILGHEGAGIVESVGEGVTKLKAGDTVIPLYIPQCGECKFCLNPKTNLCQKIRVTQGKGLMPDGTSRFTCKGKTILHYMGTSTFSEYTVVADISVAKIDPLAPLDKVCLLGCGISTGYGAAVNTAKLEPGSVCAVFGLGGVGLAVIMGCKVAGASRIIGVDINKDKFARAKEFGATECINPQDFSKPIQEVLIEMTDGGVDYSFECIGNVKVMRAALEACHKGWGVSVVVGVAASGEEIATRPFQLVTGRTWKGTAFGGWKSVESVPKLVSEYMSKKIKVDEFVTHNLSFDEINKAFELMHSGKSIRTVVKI
T2 sequence (P11766 whole entry): as above

Structure (SMILES) | IC50 [1, 5] | circulating inflammatory cytokines ([2]; oral 0.1, 1, or 10 mg/kg/day for 10 days) | effects compared with prednisolone ([2]; prednisolone 3 mg/kg/day oral) | effects compared with roflumilast [3] | BALF chemokines ([3]; oral 10 mg/kg/day for 7 days) | IC50 [1] | distance between the hydroxyl group and the carboxylic acid (GSNOR and NAD+) | bioavailability [4]
O=C(O)c1ccc(-c2ccc3cc(O)ccc3n2)cc1 [Compound I-3] | < 100 nM | restored circulating inflammatory cytokines towards levels observed in untreated naïve mice | comparable to or greater than those observed for prednisolone | comparable to or greater than those observed for roflumilast | restored BALF chemokines towards levels observed in naïve mice | – | – | –
O=C(O)c1ccc(Oc2c(C(F)(F)F)oc3cc(O)ccc3c2=O)cc1 [Compound V-1, 4-(7-hydroxy-4-oxo-2-(trifluoromethyl)-4H-chromen-3-yloxy)benzoic acid] | – | – | – | – | – | 100 to 1000 nM | 12.34 Å | –
O=C(O)c1ccc(-c2c(C(F)(F)F)oc3cc(O)ccc3c2=O)cc1 [IV-10, 4-(7-hydroxy-4-oxo-2-(trifluoromethyl)-4H-chromen-3-yl)benzoic acid] | < 100 nM | – | – | – | – | – | 12.07 Å | > 9%
